# Experimental data from patent US12421228B2 (Mirati Therapeutics, Inc., priority 2019, dated 2025).
# Legend:
# [1] = system: Karpas 422 cells (EZH2 Y641N); assay: Karpas 422 cell viability (Cell Titre Glo); type: cell-based; conditions: Homo sapiens, CTG viability, Day 4, Day 7 or Day 11 (time point not given), read-out: IC50 (nM), Inhibiting Proliferation of Cells Expressing an Activating Mutant Form of EZH2
# Method: Karpas 422 cell line is a human B cell non-Hodgkin's lymphoma cell line established from a patient having DLBCL. This EZH2 heterozygotic cell line expresses a mutant form of EZH2 enzyme (Y641N) that increases histone H3 methylation and this mutation has been implicated in the tumorgenesis of lymphomas, such as DLBCL.
# Karpas 422 cells (PHE cat no., 06101702) were cultured in RPMI medium supplemented with 20% fetal bovine serum and 1% penicillin/1% streptomycin and plated at a density of 1000 cells/90 μl/well in 96 well white assay plates. A dose response curve for compounds of the present invention was determined by adding a 10 μl aliquot of stock solutions of varying concentrations of compounds to the same medium in each well, over a concentration range of 10 μM using 3-fold dilutions to a final concentration of 1.5 nM. The plates were incubated at 37° C. for predetermined time periods, Day 4, Day 7, or Day 11, and the viability of the cells was measured using a CTG assay kit (Cell Titre Glo; Promega cat. no G7573) on Day 4 and Day 7 in accordance with the manufacturer's instructions.
# For the viability assay for the Day 11 plates, the plates were subjected to centrifugation at 1100 rpm for five minutes on Day 7 and the supernatant was removed by aspiration. The cells were resuspended in 90 μl aliquot of the appropriate growth medium lacking the compound followed by addition of 10 μl of a 10× stock of the same compound at the same concentration. The viability of the Day 11 cells was measured using the CTG assay kit described above in accordance with the manufacturer's instructions. The IC50 values for each compound at each predetermined time point were calculated using Graph pad PRISM software and the results are shown in Table 8. A=≤250 nM; B=[…]−≤500 nM; C=>500 nM and N.D.=not determined.
# [2] = target: purified human, His-tagged PRC2 complex (Homo sapiens (Human), UniProt O75530); assay: Hot Spot HMT assay, inhibition of PRC2 enzymatic activity; type: biochemical; conditions: 10 nM PRC2 complex, 0.05 mg/ml core histone H3, 1 μM 3H-SAM, 1 hr at 30° C.; read-out: IC50, Inhibition of PRC2-mediated Enzymatic Activity
# Sequence of purified human, His-tagged PRC2 complex (Q15910 whole entry): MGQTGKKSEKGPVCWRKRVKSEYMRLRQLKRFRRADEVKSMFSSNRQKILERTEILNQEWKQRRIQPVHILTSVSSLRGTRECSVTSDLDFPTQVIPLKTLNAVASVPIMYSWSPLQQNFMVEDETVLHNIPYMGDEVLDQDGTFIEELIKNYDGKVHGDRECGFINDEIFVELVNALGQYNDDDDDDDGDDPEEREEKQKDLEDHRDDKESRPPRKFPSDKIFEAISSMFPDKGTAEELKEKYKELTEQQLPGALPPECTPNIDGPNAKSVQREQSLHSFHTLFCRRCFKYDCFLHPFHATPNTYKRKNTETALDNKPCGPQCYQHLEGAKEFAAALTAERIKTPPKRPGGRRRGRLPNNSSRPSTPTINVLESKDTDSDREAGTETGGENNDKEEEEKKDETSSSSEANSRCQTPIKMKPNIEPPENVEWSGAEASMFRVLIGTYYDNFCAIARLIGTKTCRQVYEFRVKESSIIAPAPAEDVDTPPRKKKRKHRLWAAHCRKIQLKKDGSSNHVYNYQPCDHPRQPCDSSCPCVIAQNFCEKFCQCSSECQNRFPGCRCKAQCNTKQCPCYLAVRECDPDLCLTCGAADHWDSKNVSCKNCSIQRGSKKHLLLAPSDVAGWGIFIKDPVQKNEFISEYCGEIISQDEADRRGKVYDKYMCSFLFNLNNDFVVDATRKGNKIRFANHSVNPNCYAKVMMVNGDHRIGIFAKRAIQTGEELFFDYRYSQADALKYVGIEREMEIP
# Sequence of purified human, His-tagged PRC2 complex (O75530 whole entry): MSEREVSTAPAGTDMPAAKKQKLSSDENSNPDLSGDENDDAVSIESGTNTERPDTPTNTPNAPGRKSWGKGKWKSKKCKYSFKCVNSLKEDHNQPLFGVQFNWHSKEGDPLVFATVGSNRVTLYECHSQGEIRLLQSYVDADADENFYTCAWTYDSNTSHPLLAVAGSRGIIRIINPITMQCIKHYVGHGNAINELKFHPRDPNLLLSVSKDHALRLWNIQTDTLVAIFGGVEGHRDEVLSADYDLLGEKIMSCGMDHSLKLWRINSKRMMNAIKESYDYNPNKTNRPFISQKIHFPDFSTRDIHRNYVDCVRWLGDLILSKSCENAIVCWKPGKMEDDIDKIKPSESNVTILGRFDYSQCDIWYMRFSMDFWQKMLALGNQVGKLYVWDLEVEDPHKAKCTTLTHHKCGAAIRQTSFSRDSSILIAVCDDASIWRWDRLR
# Sequence of purified human, His-tagged PRC2 complex (Q15022 whole entry partner): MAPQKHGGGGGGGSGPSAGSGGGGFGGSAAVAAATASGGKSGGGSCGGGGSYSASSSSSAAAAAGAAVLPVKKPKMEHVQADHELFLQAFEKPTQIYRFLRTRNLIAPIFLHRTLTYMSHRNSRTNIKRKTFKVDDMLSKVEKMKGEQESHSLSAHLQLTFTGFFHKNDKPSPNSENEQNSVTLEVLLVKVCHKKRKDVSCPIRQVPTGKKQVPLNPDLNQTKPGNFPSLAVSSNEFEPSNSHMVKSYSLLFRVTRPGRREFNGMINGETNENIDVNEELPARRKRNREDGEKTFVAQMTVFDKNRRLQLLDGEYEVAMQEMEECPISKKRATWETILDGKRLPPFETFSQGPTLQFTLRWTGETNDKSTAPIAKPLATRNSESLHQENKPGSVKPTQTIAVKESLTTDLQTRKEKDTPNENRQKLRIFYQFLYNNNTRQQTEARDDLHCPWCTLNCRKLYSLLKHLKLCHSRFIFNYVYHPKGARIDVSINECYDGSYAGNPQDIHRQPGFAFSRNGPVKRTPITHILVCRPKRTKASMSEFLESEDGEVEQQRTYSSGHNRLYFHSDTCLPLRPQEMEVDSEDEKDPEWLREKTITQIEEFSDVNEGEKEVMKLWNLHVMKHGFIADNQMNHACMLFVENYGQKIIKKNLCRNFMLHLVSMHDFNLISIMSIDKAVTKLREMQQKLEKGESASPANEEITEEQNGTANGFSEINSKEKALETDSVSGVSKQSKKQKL
# Sequence of purified human, His-tagged PRC2 complex (Q6ZN18 whole entry partner): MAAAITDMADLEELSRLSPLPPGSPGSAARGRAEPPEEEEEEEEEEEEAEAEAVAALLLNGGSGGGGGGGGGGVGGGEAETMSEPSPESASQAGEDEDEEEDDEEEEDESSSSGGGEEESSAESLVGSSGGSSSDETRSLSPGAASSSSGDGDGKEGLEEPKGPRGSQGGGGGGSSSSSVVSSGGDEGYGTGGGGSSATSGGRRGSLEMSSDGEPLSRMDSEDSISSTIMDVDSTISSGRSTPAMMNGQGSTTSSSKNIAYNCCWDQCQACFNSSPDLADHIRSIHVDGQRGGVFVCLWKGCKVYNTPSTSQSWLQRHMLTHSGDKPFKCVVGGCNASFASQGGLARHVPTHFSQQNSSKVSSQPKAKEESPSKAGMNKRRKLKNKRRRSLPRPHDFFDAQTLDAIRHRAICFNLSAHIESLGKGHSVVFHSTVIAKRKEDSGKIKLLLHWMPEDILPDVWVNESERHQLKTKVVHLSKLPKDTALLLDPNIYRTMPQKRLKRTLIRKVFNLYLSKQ
# Sequence of purified human, His-tagged PRC2 complex (Q09028 whole entry partner): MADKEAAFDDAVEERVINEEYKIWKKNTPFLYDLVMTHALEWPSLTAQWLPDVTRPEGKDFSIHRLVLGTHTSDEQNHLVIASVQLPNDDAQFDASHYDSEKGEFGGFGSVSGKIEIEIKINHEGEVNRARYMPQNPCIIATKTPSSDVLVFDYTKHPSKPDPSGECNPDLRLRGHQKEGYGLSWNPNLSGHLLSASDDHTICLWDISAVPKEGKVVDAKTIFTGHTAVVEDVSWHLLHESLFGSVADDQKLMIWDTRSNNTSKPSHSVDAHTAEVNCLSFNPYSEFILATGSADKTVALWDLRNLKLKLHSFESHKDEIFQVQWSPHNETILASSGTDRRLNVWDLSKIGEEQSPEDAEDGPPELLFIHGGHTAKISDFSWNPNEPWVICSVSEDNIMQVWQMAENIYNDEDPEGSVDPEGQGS
# Method: Ten-point dose-response curves for compounds of the present invention were determined using a Hot Spot HMT assay (Reaction Biology Corp; see Horiuchi et al., Assay Drug Dev Technol. (2013) 4: 227-236 doi: 10.1089/adt.2012.480). The assay uses purified human, His-tagged PRC2 complex, including N-terminal His-tagged EZH2 enzyme, N-terminal Flag-tagged embryonic ectoderm development protein (EED), N-terminal His-tagged suppressor of zeste 12 (SUZ12), N-terminal His-tagged AEBP2, and N-terminal His-tagged RbAp48. In this assay, the transfer of the tritiated methyl group from radiolabeled S-adenosyl methionine (SAM) to purified core histone protein by EZH2 is quantitated after filtration to determine the activity of the core PRC2 complex in the presence and absence of compound.
# Briefly, compounds of the present invention were solubilized in DMSO and a series of 10, three-fold serial dilutions were made for each compound in 15% DMSO. The initial starting concentration for the serial dilutions of each compound was 1.0 μM. Control samples lacking compound, EZH2 enzyme or various reaction components also were prepared and processed in parallel with compound test samples. SAH (S-(5-adenosyl)-L-homocysteine) was used as a positive control for assay validation.
# An aliquot of each serial dilution of test compound was added to deep 384 well plate using Acoustic Technology instrument (Echo 550, LabCyte) containing reaction buffer (50 mM Tris-HCl (pH 8)), 0.01% Brij35, 1 mM EDTA, 1 mM DTT, 1 mM PMSF and 1% DMSO), 10 nM purified PRC2 complex and 0.05 mg/ml core histone H3 in a 5 μl volume. The reaction was mixed gently and then pre-incubated for 20 min at 30° C. The enzymatic reaction was initiated by adding 1 μM S-Adenosyl-L-[methyl-^3H]methionine and incubated for 1 hr at 30° C. After 1 hr, the reaction product was detected using a filter binding method and the amount of tritiated H3 core histone was quantitated using a scintillation counter. The IC50 value for each compound was determined from each 10-point dose-response curve using GraphPad Prism software and the results for compounds of present invention, including compounds of Formula (I) and Formula (II) are shown in Table 6. Key: A=<100 nM; B=>100 nM−<250 nM; and C=>250 nM.
# [3] = system: PRC2-mediated histone H3 methylation in Pfeiffer cells (EZH2 A677G); assay: Tri-Methyl Histone H3 (Lys 27) sandwich ELISA in Pfeiffer cells; type: cell-based; conditions: Homo sapiens, 96 hours incubation, H3K27me3 ELISA, read-out: IC50 (nM), Inhibition of EZH2-mediated Histone H3 Trimethylation
# Source text: The Pfeiffer cell line was established from a […] from a patient having metastatic diffuse large B-cell lymphoma (DLBCL). This cell line expresses a mutant form of the EZH2 enzyme (A677G) that results in enhanced EZH2 activity leading to increased methylation of histone H3 Lys27. Increased trimethylation of histone H3 Lys27 is believed to be implicated in tumorgenesis and poor clinical prognosis in lymphomas (McCabe et al., (2012) Nature 492:108-112).
# Inhibition of PRC2-mediated histone H3 methylation by compounds of Formula (I) was measured by ELISA using a Tri-Methyl Histone H3 (Lys 27) Sandwich ELISA Kit (Cell Signaling Tech #7866C) in accordance with the manufacturer's instructions. Briefly, Pfeiffer cells were cultured in RPMI medium supplemented with 10% fetal bovine serum and 1% penicillin and 1% streptomycin in 96 well culture plates at 37° C. to a density of 8000 cells/90 μl/well and the cells were harvested. A series of 3-fold serial dilutions of each test compound of Formula (I) were prepared in RPMI medium and added to the cells at final concentrations ranging from […] to 0.15 nM. The plates were incubated at 37° C. for 96 hours.
# After incubation, the cells were pelleted by centrifugation in a pre-cooled 4° C. rotor at 1,100 rpm for 10 min and the supernatant was removed by aspiration. The cell pellet was resuspended in 55 μl of Lysis Buffer (0.4M HCl) and incubated on ice with periodic shaking for 30 minutes. The lysed cells were subjected to centrifugation at 4,200 rpm for 10 min at 4° C. and the supernatant containing acid-soluble proteins was collected and the remainder discarded. The acid-soluble proteins were brought to a neutral pH by the addition of 20 μl of Neutralization Buffer (1 M Sodium phosphate, dibasic (pH 12.5), 2.5 mM DTT and 1 mM PMSF) and the neutralized lysates were analyzed by ELISA.
# A 65 μl aliquot of each cell lysate was added to a well of a microwell strip, the microwells were sealed using tape and incubated either at 37° C. for two hours or at 4° C. overnight. After incubation, the tape was removed at the microwells were washed four times using 200 μl of 1× Wash Buffer. To each washed microwell, a 100 μl aliquot of an anti-trimethyl histone H3 Lys27 Detection Antibody solution was added and the microwells were incubated at 37° C. for one hour. The Detection Antibody solution was removed by aspiration and the wells were washed four times each using 200 μl of 1× Wash Buffer.
# A 100 μl aliquot of an HRP-linked secondary antibody was added to each well, the wells were sealed with tape and incubated at 37° C. for 30 min. The HRP-linked secondary antibody solution was removed by aspiration and the wells were washed four times using 200 μl of 1× Wash Buffer. A 100 μl aliquot of a TMB substrate was added to each well, the wells were sealed with tape and incubated at 37° C. for 10 min or 25° C. for 30 min. The reaction was stopped by the addition of 100 μl aliquot of a STOP solution and the plate was shaken briefly. The degree of histone H3 trimethylation was determined using a spectrophotometric readout by measuring the absorbance at 450 nm and then calculating the amount of trimethylated histone H3. A=≤100 nM; B=>100 nM−≤500 nM; C=>500 nM and N.D.=not determined.
IC50 [1],IC50 [2],IC50 [3],SMILES
≤ 250 nM,< 100 nM,≤ 100 nM,"CNCc1ccc(-c2cnc(NCc3c(F)ccc4c3CCO4)c3cnncc23)c(C)c1 [Example 19, N-((5-fluoro-2,3-dihydrobenzofuran-4-yl)methyl)-8-(2-methyl-4-((methylamino)methyl)phenyl)pyrido[3,4-d]pyridazin-5-amine]"
> 500 nM,> 250 nM,> 500 nM,"Cc1cc(-c2cnc(NCc3c(F)ccc4c3CCO4)c3ncncc23)n(C)n1 [Example 59, 5-(1,3-dimethyl-1H-pyrazol-5-yl)-N-((5-fluoro-2,3-dihydrobenzofuran-4-yl)methyl)pyrido[3,4-d]pyrimidin-8-amine]"
> 500 nM,> 250 nM,> 500 nM,"COc1ncnc2c(NCc3c(F)ccc4c3CCO4)ncc(-c3cc(C)nn3C)c12 [Example 57, 5-(1,3-dimethyl-1H-pyrazol-5-yl)-N-((5-fluoro-2,3-dihydrobenzofuran-4-yl)methyl)-4-methoxypyrido[3,4-d]pyrimidin-8-amine]"
≤ 250 nM,< 100 nM,≤ 100 nM,"CNCc1ccc(-c2cnc(NCc3c(F)ccc4c3CCO4)c3cncnc23)c(C)c1 [Example 26, N-((5-fluoro-2,3-dihydrobenzofuran-4-yl)methyl)-8-(2-methyl-4-((methylamino)methyl)phenyl)pyrido[4,3-d]pyrimidin-5-amine]"
≤ 250 nM,< 100 nM,≤ 100 nM,NS(=O)(=O)c1ccc(-c2cnc(NCc3c(F)ccc4c3CCO4)c3cnncc23)cc1 [Example 1]
≤ 250 nM,< 100 nM,≤ 100 nM,Cc1cc(-c2cnc(NCc3c(F)ccc4c3CCO4)c3cnncc23)ccn1 [Example 12]
≤ 250 nM,< 100 nM,≤ 100 nM,CN(C)S(=O)(=O)c1ccc(-c2cnc(NCc3c(F)ccc4c3CCO4)c3cnncc23)cc1 [Example 8]
≤ 250 nM,< 100 nM,≤ 100 nM,"Cn1nc(C#N)cc1-c1cnc(NCc2c(F)ccc3c2CCO3)c2cnncc12 [Example 16, 5-(5-(((5-fluoro-2,3-dihydrobenzofuran-4-yl)methyl)amino)pyrido[3,4-d]pyridazin-8-yl)-1-methyl-1H-pyrazole-3-carbonitrile]"
> 500 nM,> 250 nM,> 500 nM,Cc1cc(-c2cnc(NCc3c(F)ccc4c3CCO4)c3cnc(OC(C)C)cc23)n(C)n1 [Example 43]
≤ 250 nM,< 100 nM,≤ 100 nM,"Cc1cc(-c2cnc(NCc3c(F)ccc4c3CCO4)c3c[nH]c(=O)cc23)n(C)n1 [Example 35, 5-(1,3-dimethyl-1H-pyrazol-5-yl)-8-(((5-fluoro-2,3-dihydrobenzofuran-4-yl)methyl)amino)-2,7-naphthyridin-3(2H)-one]"
≤ 250 nM,< 100 nM,≤ 100 nM,Cc1ncccc1-c1cnc(NCc2c(F)ccc3c2CCO3)c2cnncc12 [Example 11]
≤ 250 nM,100 to 250 nM,≤ 100 nM,CN(C)C(=O)c1ccc(-c2cnc(NCc3c(F)ccc4c3CCO4)c3cnncc23)cc1 [Example 9]
≤ 250 nM,< 100 nM,100 to 500 nM,"CN(C)C(=O)c1cc(-c2cnc(NCc3c(F)ccc4c3CCO4)c3c[nH]c(=O)cc23)n(C)n1 [Example 47, 5-(1-(((5-fluoro-2,3-dihydrobenzofuran-4-yl)methyl)amino)-6-oxo-6,7-dihydro-2,7-naphthyridin-4-yl)-N,N,1-trimethyl-1H-pyrazole-3-carboxamide]"
≤ 250 nM,100 to 250 nM,100 to 500 nM,CN(C)Cc1ccc(-c2cnc(NCc3c(F)ccc4c3CCO4)c3c[nH]c(=O)cc23)cc1 [Example 38]
≤ 250 nM,> 250 nM,100 to 500 nM,Cc1cc(-c2cnc(NCc3c(F)ccc4c3CCO4)c3cnc(OCCN(C)C)cc23)n(C)n1 [Example 44]
≤ 250 nM,100 to 250 nM,≤ 100 nM,Cc1cc(C(=O)N(C)C)ncc1-c1cnc(NCc2c(F)ccc3c2CCO3)c2cnncc12 [Example 4]
≤ 250 nM,< 100 nM,≤ 100 nM,"CN(C)C(=O)c1cc(-c2cnc(NCc3c(F)ccc4c3CCO4)c3cnccc23)n(C)n1 [Example 32, 5-(1-(((5-fluoro-2,3-dihydrobenzofuran-4-yl)methyl)amino)-2,7-naphthyridin-4-yl)-N,N,1-trimethyl-1H-pyrazole-3-carboxamide]"
> 500 nM,100 to 250 nM,> 500 nM,Cc1cc(S(C)(=O)=O)ccc1-c1cnc(NCc2c(F)ccc3c2CCO3)c2cnccc12 [Example 31]
≤ 250 nM,< 100 nM,100 to 500 nM,Cn1nc(C#N)cc1-c1cnc(NCc2c(F)ccc3c2CCO3)c2c[nH]c(=O)cc12 [Example 48]
